From ChEMBL document CHEMBL4382229, “Benzofuran derivatives and their anti-tubercular, anti-bacterial activities” (Eur J Med Chem, 2019)
pIC50: −log10 of the molar value. Converted amounts (≈) assume the structure as drawn.

Columns and labels:
Bacillus spizizenii [1] = experiment: Antibacterial activity against Bacillus subtilis ATCC 6633 after 24 hrs by broth dilution method; format: functional
Staphylococcus aureus [2] = experiment: Antibacterial activity against Staphylococcus aureus ATCC 29213 after 24 hrs by broth dilution method; format: functional
Escherichia coli [3] = experiment: Antibacterial activity against Escherichia coli ATCC 11229 after 24 hrs by broth dilution method; format: functional
Proteus vulgaris [4] = experiment: Antibacterial activity against Proteus vulgaris […] after 24 hrs by broth dilution method; format: functional
Pseudomonas aeruginosa [5] = experiment: Antibacterial activity against Pseudomonas aeruginosa MTCC 424 assessed as zone of inhibition at 100 ug/ml by disc diffusion method; format: functional; details: read-out: IZ
Streptococcus pyogenes = experiment: Antibacterial activity against Streptococcus pyogenes MTCC 442 assessed as zone of inhibition at 100 ug/ml by disc diffusion method; format: functional; details: read-out: IZ
Staphylococcus aureus [6] = experiment: Antibacterial activity against Staphylococcus aureus MTCC 96 assessed as zone of inhibition at 100 ug/ml by disc diffusion method; format: functional; details: read-out: IZ
Escherichia coli [7] = experiment: Antibacterial activity against Escherichia coli MTCC 443 assessed as zone of inhibition at 100 ug/ml by disc diffusion method; format: functional; details: read-out: IZ
Staphylococcus aureus [8] = experiment: Antibacterial activity against Staphylococcus aureus assessed as zone of inhibition at 1 mg/ml after 32 hrs by agar-well diffusion method; format: functional; details: read-out: IZ
Escherichia coli [9] = experiment: Antibacterial activity against Escherichia coli assessed as zone of inhibition at 50 ug/ml after 3 days by filter paper disc method; format: functional; details: 72 h, read-out: IZ
Bacillus spizizenii [10] = experiment: Antibacterial activity against Bacillus subtilis ATCC 6633 after 24 hrs; format: functional; details: ATCC 6633, 24 h
Pseudomonas aeruginosa [11] = experiment: Antibacterial activity against Pseudomonas aeruginosa assessed as zone of inhibition at 1 mg/ml after 32 hrs by agar-well diffusion method; format: functional; details: read-out: IZ
Proteus vulgaris [12] = experiment: Antibacterial activity against Proteus vulgaris after 24 hrs; format: functional
Escherichia coli [13] = experiment: Antibacterial activity against Escherichia coli assessed as zone of inhibition at 1 mg/ml after 32 hrs by agar-well diffusion method; format: functional; details: read-out: IZ
Escherichia coli [14] = experiment: Antibacterial activity against Escherichia coli ATCC 25922 after 24 hrs; format: functional; details: ATCC 25922, 24 h
Staphylococcus aureus [15] = experiment: Antibacterial activity against Staphylococcus aureus assessed as zone of inhibition at 50 ug/ml after 3 days by filter paper disc method; format: functional; details: 72 h, read-out: IZ
Staphylococcus aureus [16] = experiment: Antibacterial activity against Staphylococcus aureus ATCC 25923 after 24 hrs; format: functional; details: ATCC 25923, 24 h
Bacillus subtilis = experiment: Antibacterial activity against Bacillus subtilis assessed as zone of inhibition at 50 ug/ml after 3 days by filter paper disc method; format: functional; details: 72 h, read-out: IZ
Klebsiella pneumoniae = experiment: Antibacterial activity against Klebsiella pneumoniae assessed as zone of inhibition at 1 mg/ml after 32 hrs by agar-well diffusion method; format: functional; details: read-out: IZ
Pseudomonas aeruginosa [17] = experiment: Antibacterial activity against Pseudomonas aeruginosa assessed as zone of inhibition at 50 ug/ml after 3 days by filter paper disc method; format: functional; details: 72 h, read-out: IZ
Staphylococcus aureus [18] = experiment: Antibacterial activity against Staphylococcus aureus ATCC 6538 after 24 hrs by broth dilution method; format: functional
[19] = test system: Mycobacterium tuberculosis; experiment: Antimycobacterial activity against Mycobacterium tuberculosis H37Rv ATCC 27294 after 5 days by microplate alamar blue assay; format: functional; details: H37Rv ATCC 27294, 120 h
[20] = target: DNA gyrase subunit A/DNA gyrase subunit B (Mycobacterium tuberculosis (strain ATCC 25618 / H37Rv), UniProt P9WG45+P9WG47); experiment: Inhibition of Mycobacterium tuberculosis H37Rv DNA gyrase A/B expressed in Escherichia coli assessed as reduction in supercoiling of relaxed pBR322 DNA substrate measured after 60 mins by ethidium bromide staining based agarose gel electrophoresis method
[21] = test system: Mycobacterium tuberculosis; experiment: Antitubercular activity against Mycobacterium tuberculosis H37Rv infected in BALB/c mouse assessed as reduction in bacterial load in lungs at 200 mg/kg, po administered once daily via gavage for 5 consecutive days per week for 2 weeks; format: functional
[22] = test system: Mycobacterium tuberculosis; experiment: Antitubercular activity against Mycobacterium tuberculosis Erdman infected in BALB/c mouse assessed as reduction in bacterial load in spleen at 300 mg/kg, po administered once daily via gavage starting from 27 days post infection for 5 consecutive days per week for 4 weeks; format: functional
[23] = test system: Mycobacterium tuberculosis; experiment: Antitubercular activity against Mycobacterium tuberculosis Erdman infected in BALB/c mouse assessed as reduction in bacterial load in lungs at 300 mg/kg, po administered once daily via gavage starting from 27 days post infection for 5 consecutive days per week for 4 weeks; format: functional
[24] = test system: Mycobacterium tuberculosis; experiment: microbe, parasite or virus in culture; details: MC2 7000, 144 h
Description: Antimycobacterial activity against Mycobacterium tuberculosis MC2 7000 after 6 days by alamar blue assay

DNA gyrase subunit A/DNA gyrase subunit B, sequence (P9WG45 whole entry): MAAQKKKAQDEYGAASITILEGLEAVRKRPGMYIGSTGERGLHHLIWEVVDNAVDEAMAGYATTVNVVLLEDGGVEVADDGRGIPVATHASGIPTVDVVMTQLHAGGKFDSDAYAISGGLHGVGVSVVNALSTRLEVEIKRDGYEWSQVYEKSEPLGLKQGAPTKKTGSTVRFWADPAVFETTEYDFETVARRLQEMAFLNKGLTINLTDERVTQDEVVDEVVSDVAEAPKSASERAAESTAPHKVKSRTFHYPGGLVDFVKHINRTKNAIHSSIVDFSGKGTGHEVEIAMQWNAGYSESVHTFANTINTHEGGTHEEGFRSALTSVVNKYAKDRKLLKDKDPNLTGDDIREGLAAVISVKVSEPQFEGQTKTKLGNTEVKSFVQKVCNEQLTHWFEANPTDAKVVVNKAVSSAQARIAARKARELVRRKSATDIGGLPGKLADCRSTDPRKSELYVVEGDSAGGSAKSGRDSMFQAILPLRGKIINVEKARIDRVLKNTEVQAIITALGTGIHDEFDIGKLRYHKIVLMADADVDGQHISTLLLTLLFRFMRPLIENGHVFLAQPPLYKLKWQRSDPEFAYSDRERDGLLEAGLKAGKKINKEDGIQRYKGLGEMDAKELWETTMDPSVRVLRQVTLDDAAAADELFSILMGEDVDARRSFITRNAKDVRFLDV
DNA gyrase subunit A/DNA gyrase subunit B, sequence (P9WG47 whole entry): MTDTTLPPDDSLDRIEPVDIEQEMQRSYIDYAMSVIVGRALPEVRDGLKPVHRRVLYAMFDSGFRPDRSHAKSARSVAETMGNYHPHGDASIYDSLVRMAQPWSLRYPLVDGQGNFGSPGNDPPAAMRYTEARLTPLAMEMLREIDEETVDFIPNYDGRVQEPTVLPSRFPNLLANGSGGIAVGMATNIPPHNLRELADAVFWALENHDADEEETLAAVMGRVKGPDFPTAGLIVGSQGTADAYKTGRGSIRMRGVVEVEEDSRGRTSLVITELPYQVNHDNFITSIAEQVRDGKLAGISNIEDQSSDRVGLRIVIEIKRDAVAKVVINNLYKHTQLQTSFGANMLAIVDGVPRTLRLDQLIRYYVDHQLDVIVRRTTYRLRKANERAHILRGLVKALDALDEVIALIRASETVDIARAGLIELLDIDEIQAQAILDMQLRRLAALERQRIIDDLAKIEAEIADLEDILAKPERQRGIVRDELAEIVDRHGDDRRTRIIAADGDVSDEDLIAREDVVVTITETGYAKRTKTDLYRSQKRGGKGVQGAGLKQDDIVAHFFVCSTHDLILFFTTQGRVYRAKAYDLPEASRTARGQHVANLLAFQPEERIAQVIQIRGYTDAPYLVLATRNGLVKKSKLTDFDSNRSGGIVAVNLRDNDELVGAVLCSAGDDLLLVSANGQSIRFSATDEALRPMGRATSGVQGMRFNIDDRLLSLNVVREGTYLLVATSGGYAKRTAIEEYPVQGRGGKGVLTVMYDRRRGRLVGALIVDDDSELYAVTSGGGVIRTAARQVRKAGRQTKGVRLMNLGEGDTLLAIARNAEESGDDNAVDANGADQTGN

Work on CCOc1ccc(-c2nn(-c3ccccc3)cc2/C=C/c2oc3c4c(ccc3c2C(=O)c2ccc(Br)cc2)OCC=C4)cc1 yielded an MIC (Bacillus spizizenii [1]; ATCC 6633, 24 h) of 6.3 to 25 µg/mL (≈ 9.79 to 38.8 µM), an MIC (Staphylococcus aureus [2]; ATCC 29213, 24 h) of 6.3 to 25 µg/mL (≈ 9.79 to 38.8 µM) and an MIC (Escherichia coli [3]; ATCC 11229, 24 h) of 6.3 to 25 µg/mL (≈ 9.79 to 38.8 µM). It also gave an MIC (Proteus vulgaris [4]) of 6.3 to 25 µg/mL (≈ 9.79 to 38.8 µM).

With Cc1cc(NS(=O)(=O)c2ccccc2)c2oc(COC(=O)NCc3ccccc3)cc2c1 the zone of inhibition at 100 µg/mL (Pseudomonas aeruginosa [5]) was 11 to 28 mm, the zone of inhibition at 100 µg/mL (Streptococcus pyogenes) was 11 to 28 mm and the zone of inhibition at 100 µg/mL (Staphylococcus aureus [6]) was 11 to 28 mm. For the same compound, the zone of inhibition at 100 µg/mL (Escherichia coli [7]) was 11 to 28 mm.

COc1ccc(-c2nn(-c3ccccc3)cc2/C=C/c2oc3c4c(ccc3c2C(=O)c2ccc(Br)cc2)OCC=C4)cc1 was tested, and the MIC (Bacillus spizizenii [1]; ATCC 6633, 24 h) was 3.1 to 6.3 µg/mL (≈ 4.92 to 10 µM), the MIC (Staphylococcus aureus [2]; ATCC 29213, 24 h) was 3.1 to 6.3 µg/mL (≈ 4.92 to 10 µM) and the MIC (Escherichia coli [3]; ATCC 11229, 24 h) was 3.1 to 6.3 µg/mL (≈ 4.92 to 10 µM). It also gave an MIC (Proteus vulgaris [4]) of 3.1 to 6.3 µg/mL (≈ 4.92 to 10 µM).

Compound CC1(C)S[C@@H]2[C@H](NC(=O)[C@H](N)c3ccccc3)C(=O)N2[C@H]1C(=O)O [AMPICILLIN] has a zone of inhibition at 1000 µg/mL (Staphylococcus aureus [8]) of 20 to 28 mm, a zone of inhibition at 50 µg/mL (Escherichia coli [9]) of 10 to 30 mm and an MIC (Bacillus spizizenii [10]) of 3.9 µg/mL (≈ 11.2 µM). For the same compound, the zone of inhibition at 1000 µg/mL (Pseudomonas aeruginosa [11]) was 20 to 28 mm, the MIC (Proteus vulgaris [12]) was 3.9 µg/mL (≈ 11.2 µM) and the zone of inhibition at 1000 µg/mL (Escherichia coli [13]) was 20 to 28 mm. For the same compound, the MIC (Escherichia coli [14]) was 3.9 µg/mL (≈ 11.2 µM), the zone of inhibition at 50 µg/mL (Staphylococcus aureus [15]) was 10 to 30 mm and the MIC (Staphylococcus aureus [16]) was 0.48 µg/mL (≈ 1.37 µM). For the same compound, the zone of inhibition at 50 µg/mL (Bacillus subtilis) was 10 to 30 mm, the zone of inhibition at 1000 µg/mL (Klebsiella pneumoniae) was 20 to 28 mm and the zone of inhibition at 50 µg/mL (Pseudomonas aeruginosa [17]) was 10 to 30 mm.

In the case of Cc1cc(NS(=O)(=O)c2ccc(Cl)cc2)c2oc(COC(=O)NCc3ccccc3)cc2c1, the zone of inhibition at 100 µg/mL (Pseudomonas aeruginosa [5]) was 11 to 28 mm, the zone of inhibition at 100 µg/mL (Streptococcus pyogenes) was 11 to 28 mm and the zone of inhibition at 100 µg/mL (Staphylococcus aureus [6]) was 11 to 28 mm. It also gave a zone of inhibition at 100 µg/mL (Escherichia coli [7]) of 11 to 28 mm.

Nc1nn2c(-c3ccc(N4CCCCC4)cc3)cc(-c3cc4ccccc4o3)nc2c1/N=N/c1ccccc1 showed a zone of inhibition at 50 µg/mL (Escherichia coli [9]) of 9 to 18 mm and a zone of inhibition at 50 µg/mL (Pseudomonas aeruginosa [17]) of 9 to 18 mm.

Compound GENTAMICIN has an MIC (Bacillus spizizenii [1]) of 1.62 to 3.12 µg/mL, an MIC (Staphylococcus aureus [18]) of 1.62 to 3.12 µg/mL and an MIC (Staphylococcus aureus [2]) of 1.6 to 3.1 µg/mL. For the same compound, the MIC (Escherichia coli [3]) was 1.62 to 3.12 µg/mL and the MIC (Proteus vulgaris [4]) was 1.62 to 3.12 µg/mL.

Compound CC(=O)Nc1cc(C)cc2cc(COC(=O)NCc3ccccc3)oc12 has a zone of inhibition at 100 µg/mL (Pseudomonas aeruginosa [5]) of 11 to 28 mm, a zone of inhibition at 100 µg/mL (Streptococcus pyogenes) of 11 to 28 mm and a zone of inhibition at 100 µg/mL (Staphylococcus aureus [6]) of 11 to 28 mm. It also gave a zone of inhibition at 100 µg/mL (Escherichia coli [7]) of 11 to 28 mm.

Compound Cc1c(C(=O)NN)oc2ccccc12 has an MIC [19] of 6.25 µg/mL (≈ 32.9 µM).

Cc1ccc2c(c1)/C(=N/NC(=O)c1cc3ccccc3o1)C(=O)N2 showed a pIC50 [20] of 3.70 to 4.30.

Compound CNC(=O)c1c(-c2ccc(O)cc2)oc2ccc(O)c(CN3CCCCC3)c12 has an Activity [21] of 6.8 log10CFU, an Activity [22] of 2.2 log10CFU and an Activity [23] of 0.9 log10CFU. The MIC [24] was 0.09 µM (≈ 0.0342 µg/mL).

For Cc1cc(NS(=O)(=O)c2cccs2)c2oc(COC(=O)NCc3ccccc3)cc2c1, the zone of inhibition at 100 µg/mL (Pseudomonas aeruginosa [5]) was 11 to 28 mm, the zone of inhibition at 100 µg/mL (Streptococcus pyogenes) was 11 to 28 mm and the zone of inhibition at 100 µg/mL (Staphylococcus aureus [6]) was 11 to 28 mm. For the same compound, the zone of inhibition at 100 µg/mL (Escherichia coli [7]) was 11 to 28 mm.

For O=C1Nc2ccc(F)cc2/C1=N/NC(=O)c1cc2cc([N+](=O)[O-])ccc2o1, the pIC50 [20] was 3.70 to 4.30.

NC(=O)c1cnccn1 [PYRAZINAMIDE] was tested, and the MIC [19] was 3.12 µg/mL (≈ 25.4 µM).

Work on O=C1Nc2ccccc2/C1=N/NC(=O)c1cc2ccccc2o1 yielded an MIC (Bacillus spizizenii [10]) of 250 to 500 µg/mL (≈ 819 to 1640 µM), an MIC (Proteus vulgaris [12]) of 250 to 500 µg/mL (≈ 819 to 1640 µM) and an MIC (Escherichia coli [14]) of 250 to 500 µg/mL (≈ 819 to 1640 µM). The MIC (Staphylococcus aureus [16]) was 250 to 500 µg/mL (≈ 819 to 1640 µM).

Compound COc1ccc(S(=O)(=O)Nc2cc(C)cc3cc(COC(=O)NCc4ccccc4)oc23)cc1 has a zone of inhibition at 100 µg/mL (Pseudomonas aeruginosa [5]) of 19 to 28 mm, a zone of inhibition at 100 µg/mL (Streptococcus pyogenes) of 19 to 28 mm and a zone of inhibition at 100 µg/mL (Staphylococcus aureus [6]) of 19 to 28 mm. For the same compound, the zone of inhibition at 100 µg/mL (Escherichia coli [7]) was 19 to 28 mm.

Compound O=C(N/N=C1\C(=O)N(c2ccccc2)c2ccccc21)c1cc2ccccc2o1 has a pIC50 [20] of 3.70 to 4.30.
